Reference: paper PMC10726357, “New Genetically Engineered Derivatives of Antibacterial Darobactins Underpin Their Potential for Antibiotic Development” (Journal of Medicinal Chemistry, 2023)
Converted amounts (≈) assume the structure as drawn. Where two headings read alike, the source gives them in different places. Where no end group is shown, it is not given here.

How the values were obtained:
[1] = system: Acinetobacter baumannii DSM-30008; assay: Antibacterial activity screening of darobactin-containing crude extracts; format: cell-based; parameters: key: two-fold serial dilution from 1:15 (A) (concentration factor: 6.67×); low activity A B C D E F G H high activity; low activity A B C D E F G H high activity; low activity A B C D E F G H high activity; low activity A B C D E F G H high activity; low activity A B C D E F G H high activity; low activity A B C D E F G H high activity; to 1:3,840 (H) (concentration factor: 0.05×); conditions: derivative-containing crude extract, two-fold serial dilution
Protocol: (§1) The extracts of production clones for all derivatives were prepared and tested for their antibacterial activity against E. coli ATCC 25922, P. aeruginosa PA01, K. pneumoniae DSM-30104, and A. baumannii DSM-30008.
(§2) The antibacterial activity of novel darobactins was determined by the evaluation of the minimum inhibitory concentration (MIC) as previously described for crude extracts and for pure darobactin analogues.[12]

[2] = system: Escherichia coli ATCC 25922; assay: as above; format: cell-based; parameters: key: two-fold serial dilution from 1:15 (A) (concentration factor: 6.67×); low activity A B C D E F G H high activity; low activity A B C D E F G H high activity; low activity A B C D E F G H high activity; low activity A B C D E F G H high activity; low activity A B C D E F G H high activity; low activity A B C D E F G H high activity; to 1:3,840 (H) (concentration factor: 0.05×); conditions: derivative-containing crude extract, two-fold serial dilution
Protocol: as §1, §2

[3] = system: Klebsiella pneumoniae DSM-30104; assay: as above; format: cell-based; parameters: key: two-fold serial dilution from 1:15 (A) (concentration factor: 6.67×); low activity A B C D E F G H high activity; low activity A B C D E F G H high activity; low activity A B C D E F G H high activity; low activity A B C D E F G H high activity; low activity A B C D E F G H high activity; low activity A B C D E F G H high activity; to 1:3,840 (H) (concentration factor: 0.05×); conditions: derivative-containing crude extract, two-fold serial dilution
Protocol: as §1, §2

P. aeruginosa PA01 [4] = assay: as above; format: cell-based, Pseudomonas aeruginosa; parameters: key: two-fold serial dilution from 1:15 (A) (concentration factor: 6.67×); low activity A B C D E F G H high activity; low activity A B C D E F G H high activity; low activity A B C D E F G H high activity; low activity A B C D E F G H high activity; low activity A B C D E F G H high activity; low activity A B C D E F G H high activity; to 1:3,840 (H) (concentration factor: 0.05×); conditions: derivative-containing crude extract, two-fold serial dilution
Protocol: as §1, §2

A. baumannii DSM-30008 = format: cell-based, Acinetobacter baumannii
Protocol: as §2

K. pneumoniae DSM-30104 = format: cell-based, Klebsiella pneumoniae
Protocol: as §2

P. aeruginosa PA01 [5] = format: cell-based, Pseudomonas aeruginosa
Protocol: as §2

E. coli ATCC25922 = format: cell-based, Escherichia coli
Protocol: as §2

[6] = target: T1, EcBamA (E. coli BamA barrel domain) (Escherichia coli, UniProt P0A940, C690S/C700S); assay: Microscale thermophoresis (MST) KD determination; format: binding
T1 construct: The E. coli BamA barrel domain (BamA-β) (residues 421–810, C690S, C700S); made in house
Protocol: As an alternative to the previously published methods using isothermal titration calorimetry (ITC), we established a KD determination assay using microscale thermophoresis (MST) to enable higher throughput.
Microscale thermophoresis (MST) (serial no. 201709-BR-N024, Monolith NT.115 Micro Scale Thermophoresis, NanoTemper Technologies GmbH) was performed according to the standard protocol from the manufacturer NanoTemper Technologies GmbH using a Monolith His-Tag Labeling Kit RED-tris-NTA second-generation kit. The buffer used was HEPES (50 mM), pH 7.6, MgCl2 (5 mM), and Tween (0.05%). […] A 1:1 dilution of the ligand over 16 samples was performed using a stock of ligand (in water) diluted in HEPES buffer. Nonhydrophobic capillary tubes were used. A pretest to check for the labeling and compound fluorescence was performed for every sample followed by a binding affinity (KD) determination. Each sample was measured after 15 min of incubation at RT and analyzed in MO Control version 1.6.

| Compound | antimicrobial activity of crude extract: highest dilution factor with full growth inhibition, A. baumannii DSM-30008 [1] | antimicrobial activity of crude extract: highest dilution factor with full growth inhibition, E. coli ATCC25922 [2] | antimicrobial activity of crude extract: highest dilution factor with full growth inhibition, K. pneumoniae DSM-30104 [3] | antimicrobial activity of crude extract: highest dilution factor with full growth inhibition, P. aeruginosa PA01 (P. aeruginosa PA01 [4]) | further results |
| --- | --- | --- | --- | --- | --- |
| D70: novel darobactin derivative, core peptide WSWSKRW (also: darobactin bicyclic crosslinks) | E | C | C | D |  |
| D67: novel darobactin derivative, core peptide WYWTKRW (not fully specified (bridges); also: darobactin bicyclic crosslinks) | E | C | C | D |  |
| C[C@@H](O)[C@@H]1NC(=O)[C@H]2NC(=O)[C@H](CC(N)=O)NC(=O)[C@@H](N)Cc3c[nH]c4c(cccc34)O[C@@H]2c2c[nH]c3cc(ccc23)[C@H](CCNC(=N)N)[C@@H](C(=O)N[C@@H](CCCNC(=N)N)C(=O)N[C@@H](Cc2c[nH]c3ccccc23)C(=O)O)NC1=O [D39] |  |  |  |  | MIC A. baumannii [DSM-30008] (A. baumannii DSM-30008; DSM-30008): 0.5 to 2 µg/mL; MIC K. pneumoniae [DSM-30104] (K. pneumoniae DSM-30104; DSM-30104): 4 to 8 µg/mL; MIC P. aeruginosa [PA01] (P. aeruginosa PA01 [5]): 2 µg/mL (≈ 1.79 µM); MIC E. coli [ATCC25922] (E. coli ATCC25922; ATCC25922): 4 to 8 µg/mL; Kd [6]: 10.9 ± 3.5 µM; IC50 HepG2 (HepG2): >37 µg/mL |
| D71: novel darobactin derivative, core peptide WEWSKRW (also: darobactin bicyclic crosslinks) | E | C | C | B-C |  |
| C[C@@H](O)[C@@H]1NC(=O)[C@H]2NC(=O)[C@H](CCC(=O)O)NC(=O)[C@@H](N)Cc3c[nH]c4c(cccc34)O[C@@H]2c2c[nH]c3cc(ccc23)[C@H](CCCN)[C@@H](C(=O)N[C@@H](CCCNC(=N)N)C(=O)N[C@@H](Cc2c[nH]c3ccccc23)C(=O)O)NC1=O [D58] |  |  |  |  | MIC A. baumannii [DSM-30008] (A. baumannii DSM-30008; pure compound, n = 2, Table 2): 2 µg/mL (≈ 1.81 µM); MIC K. pneumoniae [DSM-30104] (K. pneumoniae DSM-30104; pure compound, n = 2, Table 2): 16 µg/mL (≈ 14.5 µM); MIC P. aeruginosa [PA01] (P. aeruginosa PA01 [5]; pure compound, n = 2, Table 2): 8 µg/mL (≈ 7.25 µM); MIC E. coli [ATCC25922] (E. coli ATCC25922; pure compound, n = 2, Table 2): 8 µg/mL (≈ 7.25 µM); Kd [6]: 5.1 ± 3.7 µM; IC50 HepG2 (HepG2; cytotoxicity, n = 2): > 37 µg/mL |
| D62: novel darobactin derivative, core peptide WRWTKRW (not fully specified (bridges); also: darobactin bicyclic crosslinks) | A |  | B |  |  |
| D72: novel darobactin derivative, core peptide WKWSKRW (also: darobactin bicyclic crosslinks) | C | C | B | B |  |
| D68: novel darobactin derivative, core peptide WLWTKRW (not fully specified (bridges); also: darobactin bicyclic crosslinks) | D | B | B | B |  |
| D66: novel darobactin derivative, core peptide WNWTKCW (not fully specified (bridges); also: darobactin bicyclic crosslinks) | C | A | A | B |  |
| D73: novel darobactin derivative, core peptide WDWSKRW (also: darobactin bicyclic crosslinks) | C | A | A | B |  |
| C[C@@H](O)[C@@H]1NC(=O)[C@H]2NC(=O)[C@H](CC(=O)O)NC(=O)[C@@H](N)Cc3c[nH]c4c(cccc34)O[C@@H]2c2c[nH]c3cc(ccc23)[C@H](CCCN)[C@@H](C(=O)N[C@@H](CCCNC(=N)N)C(=O)N[C@@H](Cc2c[nH]c3ccccc23)C(=O)O)NC1=O [D60] |  |  |  |  | MIC A. baumannii [DSM-30008] (A. baumannii DSM-30008; DSM-30008): 2 µg/mL (≈ 1.84 µM); MIC K. pneumoniae [DSM-30104] (K. pneumoniae DSM-30104; DSM-30104): 16 µg/mL (≈ 14.7 µM); MIC P. aeruginosa [PA01] (P. aeruginosa PA01 [5]): 4 µg/mL (≈ 3.67 µM); MIC E. coli [ATCC25922] (E. coli ATCC25922; ATCC25922): 16 µg/mL (≈ 14.7 µM); IC50 HepG2 (HepG2): > 37 µg/mL |
| D65: novel darobactin derivative, core peptide WSWTKKW (not fully specified (bridges); also: darobactin bicyclic crosslinks) | D | A | A | B |  |
| D63: novel darobactin derivative, core peptide WVWTKRW (not fully specified (bridges); also: darobactin bicyclic crosslinks) | C |  | B | A |  |
| D59: novel darobactin derivative, core peptide WKWTKRW (not fully specified (bridges); also: darobactin bicyclic crosslinks) | A | A | A | A |  |
| C[C@@H](O)[C@@H]1NC(=O)[C@H]2NC(=O)[C@H](CC(N)=O)NC(=O)[C@@H](N)Cc3c[nH]c4c(cccc34)O[C@@H]2c2c[nH]c3cc(ccc23)[C@H](CCCN)[C@@H](C(=O)N[C@@H](CCC(N)=O)C(=O)N[C@@H](Cc2c[nH]c3ccccc23)C(=O)O)NC1=O [D74] |  |  |  |  | MIC A. baumannii [DSM-30008] (A. baumannii DSM-30008; DSM-30008): 4 µg/mL (≈ 3.77 µM); MIC K. pneumoniae [DSM-30104] (K. pneumoniae DSM-30104; DSM-30104): 16 µg/mL (≈ 15.1 µM); MIC P. aeruginosa [PA01] (P. aeruginosa PA01 [5]): 2 µg/mL (≈ 1.89 µM); MIC E. coli [ATCC25922] (E. coli ATCC25922; ATCC25922): 4 µg/mL (≈ 3.77 µM); IC50 HepG2 (HepG2): > 37 µg/mL |
